According to patent US12310970B2, “Compounds and methods for treating or preventing anterior segment ocular disorders and/or retinal degenerations” (YALE UNIVERSITY, priority 2018, dated 2025):
Where a name gives a salt, the structure may show the parent alone.

How the values were obtained:
[1] = tested on: Human ARPE-19 cells; test: Cell viability on nitrite-modified extracellular matrix; type: cell-based; conditions: 0.9 μM, 24 h
Method: To prepare the RPE ECM nitrite-treated plates, ARPE-19 cells were grown on 24-well Transwell permeable supports (Corning, Tewksbury, MA, USA) in 12-well plates for 6 to 8 weeks to allow for ECM formation. ARPE-19 cells were removed by the addition of 20 mM ammonium hydroxide buffer for 20 minutes, and the ECM was washed three times with phosphate-buffered saline (PBS). Phosphate-buffered saline was removed from the RPE-derived ECM (RPE-ECM), which was then allowed to dry. The RPE-derived ECM plates were either used immediately after drying, or stored at −20° C. for future use. RPE-derived ECM was processed further to create four experimental plating surfaces (untreated, nitrite modified, nitrite modified followed by washing, or nitrite modified followed by washing and coating with a mixture of ECM ligands).
Nitrite-modified ECM was prepared by adding 100 mM sodium nitrite to the ECM and incubating at 37° C. for 7 days. Plates were then washed at least four times with PBS and further incubated with PBS for 4 hours. Following this, the plates were washed at least two additional times to completely remove the nitrite.
Reactive nitrogen species (RNS) act together with reactive oxygen species (ROS) to damage cells, causing nitrosative stress. […]

[2] = tested on: HUVEC; test: TBHP-induced cell death in HUVEC; type: cell-based, human; conditions: 0.9 μM 24 h preincubation, 400 μM TBHP 24 h
Method: (§1) FIG. 17 is a graph illustrating that Compound 414 and 434 protect various cell types from oxidative stress-induced cell death. Human ARPE-19, HUVEC, and C6 cells were preincubated with compound 414 and 434 for 24 hours, and then exposed to 400 μM tert-butyl hydroperoxide (TBHP) to induce cell death for 24 hours.
(§2) Human ARPE-19, HUVEC, and C6 cells were preincubated with compound 414 and 434 for 24 hours, and then exposed to 400 μM tert-butyl hydroperoxide (TBHP) to induce cell death for 24 hours.

[3] = tested on: 661 W photoreceptor-derived cells; test: TBHP-induced oxidative stress in 661 W photoreceptor-derived cells; type: cell-based, Murine; conditions: 24 h preincubation, then 300 μM TBHP 24 h, n=4
Method: As shown in FIGS. 20A-20B, compounds 414 and 434 protect 661 W photoreceptor-derived cells from tert-butyl […] oxidative stress. Retinal photoreceptor-derived cell line (661 W) were cultured until confluent in Dulbecco's modified eagle medium (DMEM) with 10% fetal bovine serum (FBS). Murine photoreceptor-derived cells were preincubated with 3 μMciclopirox olamine for 24 hours and then exposed to 300 μM tert-butyl hydroperoxide (TBHP) to induce cell death for 24 hours. […] Bar: standard error, n=4. student t-test was performed for statistical analysis.

[4] = tested on: Human ARPE-19 cells; test: Light microscopy of cell morphology after TBHP challenge; type: cell-based
Method: FIG. 1B depicts cells alone (control). FIG. 1C depicts cells treated with 300 μM TBHP. FIG. 1D depicts cells treated with 0.9 μM of ciclopirox olamine.
FIG. 8B depicts cells alone (control). FIG. 8C depicts cells treated with 300 μM TBHP. FIG. 8D depicts cells treated with 0.6 μM compound 414.
Human ARPE-19 cells morphology was examined using phase contrast on a Zeiss 510 NLO confocal laser scanning microscope with a Plan-Apochromatic 20×0.8 DIC objective.

[5] = tested on: C6 cells; test: TBHP-induced cell death in C6 cells; type: cell-based; conditions: 0.9 μM 24 h preincubation, 400 μM TBHP 24 h
Method: as §1, §2

[6] = tested on: Human ARPE-19 cells; test: CellTox Green cytotoxicity assay; type: cell-based; conditions: 0.9 μM 24 h
Method: FIG. 14 is a graph illustrating cytotoxicity level of the compounds in human retinal pigment epithelial (RPE) cells. Human ARPE-19 cells were preincubated with 0.9 μM of compound 414 or 434 for 24 hours and then exposed to 300 μM tert-butyl hydroperoxide (TBHP) for 24 hours. Cell toxicity was measured in human ARPE-19 cells after treatment with TBHP and compounds 414 and 434.
Human ARPE-19 or primary RPE were plated in 96-well plates for 24 hours in DMEM supplemented with FBS and antibiotics. ARPE-19 cells were incubated with compound (Chemical Diversity) or exposed to tert-butyl hydroperoxide (Sigma-Aldrich, St. Louis, MO) for 24 hours. Cell cytotoxicity was measured the following day by CellTox™ Green cytotoxicity assay (Promega, Madison, WI) using a BioTek FLx800™ fluorescence reader (BioTek, Winooski, VT).
After exposure to TBHP for 24 hours and treatment with compound 414 or 434 cytotoxicity levels were measured in human ARPE-19 cells (FIG. 14).

[7] = tested on: corneal endothelial cells; test: TBHP-induced cell death in corneal endothelial cells; type: cell-based, cow; conditions: corneal endothelial cells (FIG. 18); 0.9 μM 24 h, then 300 μM TBHP 24 h
Method: Immortalized cow corneal endothelial cells (CRL-2048) obtained from the American Type Culture Collection (ATCC, Manassas, VA, USA) were cultured in Dulbecco's modified Eagle's medium (DMEM; Thermo Fisher Scientific, Waltham, MA) containing 10% fetal bovine serum (FBS), 100 IU/mL penicillin, 100 μg/mL streptomycin, 100 μg/mL gentamicin, and 2.5 μg/mL amphotericin B (Thermo Fisher Scientific). Human ARPE-19 cells were plated in 96-well plates for 24 hours in DMEM supplemented with FBS and antibiotics. ARPE-19 cells were preincubated with either ciclopirox olamine (Sigma), compound 414 (Chemical Diversity, San Diego, CA), compound 434 (Chemical Diversity) or no compound for 24 hours and then exposed to varying concentrations of tert-butyl hydroperoxide (TBHP; Sigma-Aldrich, St. Louis, MO) the next day for 24 hours. Cell viability was measured the following day by […] cell viability assay (Promega, Madison, WI) using a BioTek FLX800TM fluorescence reader (BioTek Winooski, VT). […] Protective effect of 0.9 μMciclopirox olamine on lens epithelial cells exposed to 300 μMTBHP.

SMILES	cell viability on nitrite-modified ECM [1]	protection from oxidative stress-induced cell death [2]	cell viability after exposure to TBHP [3]	cell morphology after challenge with TBHP ([4]; 0.6 μM compound and 300 μM TBHP)	protection from oxidative stress-induced cell death [5]	cytotoxicity, treatment with compound alone [6]	cell morphology after challenge with TBHP ([4]; 0.9 μM ciclopirox olamine and 300 μM TBHP)	cell viability after exposure to TBHP [7]
CCc1cccc(C)c1Nc1c(-c2cc(Br)ccc2O)nc2ncccn12 [compound 414]	enhances cell viability	Protective effects	significantly increased cell viability	helps to preserve a normal morphology	Protective effects	reduce cytotoxicity	–	–
Cc1cc(C2CCCCC2)n(O)c(=O)c1 [ciclopirox olamine, 6-cyclohexyl-1-hydroxy-4-methyl-2(1H)-pyridone, ethanolamine salt, reference compound]	–	–	–	–	–	–	helps to preserve a normal morphology	significantly increases cell viability
CCc1cccc(C)c1Nc1c(-c2cc(Br)ccc2O)nc2nc(C)cc(C)n12 [compound 434]	enhances cell viability	Protective effects	significantly increased cell viability	–	Protective effects	reduce cytotoxicity	–	–
